From PubChem BioAssay AID1963985 (Molecular Pharmacology Branch, DTP, NCI, 2024)
pIC50: −log10 of the molar value.

Tested on: 252836-082-R-J2-PDC tumor spheroids, viability
Experiment: Anticancer human tumor 252836-082-R-J2-PDC patient-derived head and neck squamous cell carcinoma cell line growth inhibition [PI3K]
Conditions: spheroids with HUVEC and MSC; for pIC50: curve of first compound; for viability, T/C: stronger effect = lower value; active = viability on the fitted dose curve at most 10% of control; inactive = the rest
Summary of the method: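 Tumor cells grown as multi-cell spheroids with HUVEC endothelial cells and MSC fibroblast-like stroma were treated with targeted agents combined with inavolisib, alpelisib, duvelisib or copanlisib. Doses fell in half-log steps from near clinical Cmax, else from 10 microM. Viability was measured.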

[1] = second compound 0.0316 µM, first compound 0.0316 µM
[2] = second compound 0.0316 µM, first compound 0.1 µM
[3] = second compound 0.0316 µM, first compound 0.316 µM
[4] = second compound 0.0316 µM, first compound 1 µM
[5] = second compound 0.0316 µM, first compound 3.16 µM
[6] = second compound 0.0316 µM, first compound 10 µM
[7] = second compound 0.1 µM, first compound 0.0316 µM
[8] = second compound 0.1 µM, first compound 0.1 µM
[9] = second compound 0.1 µM, first compound 0.316 µM
[10] = second compound 0.1 µM, first compound 1 µM
[11] = second compound 0.1 µM, first compound 3.16 µM
[12] = second compound 0.1 µM, first compound 10 µM
[13] = second compound 0.316 µM, first compound 0.0316 µM
[14] = second compound 0.316 µM, first compound 0.1 µM
[15] = second compound 0.316 µM, first compound 0.316 µM
[16] = second compound 0.316 µM, first compound 1 µM
[17] = second compound 0.316 µM, first compound 3.16 µM
[18] = second compound 0.316 µM, first compound 10 µM
[19] = second compound 1 µM, first compound 0.0316 µM
[20] = second compound 1 µM, first compound 0.1 µM
[21] = second compound 1 µM, first compound 0.316 µM
[22] = second compound 1 µM, first compound 1 µM
[23] = second compound 1 µM, first compound 3.16 µM
[24] = second compound 1 µM, first compound 10 µM
[25] = second compound 3.16 µM, first compound 0.0316 µM
[26] = second compound 3.16 µM, first compound 0.1 µM
[27] = second compound 3.16 µM, first compound 0.316 µM
[28] = second compound 3.16 µM, first compound 1 µM
[29] = second compound 3.16 µM, first compound 3.16 µM
[30] = second compound 3.16 µM, first compound 10 µM
[31] = second compound 10 µM, first compound 0.0316 µM
[32] = second compound 10 µM, first compound 0.1 µM
[33] = second compound 10 µM, first compound 0.316 µM
[34] = second compound 10 µM, first compound 1 µM
[35] = second compound 10 µM, first compound 3.16 µM
[36] = second compound 10 µM, first compound 10 µM
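Also: spheroids exposed to agents for seven days before readout.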
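For viability, T/C in this document: percent of vehicle DMSO control viability so 100% = untreated growth.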

CC(C)NCC(C(=O)N1CCN(c2ncnc3c2C(C)CC3O)CC1)c1ccc(Cl)cc1 (stereo not drawn) + Cc1nc(NC(=O)N2CCCC2C(N)=O)sc1-c1ccnc(C(C)(C)C(F)(F)F)c1
6.11: pIC50 (second compound 0.1 µM)
6.01: pIC50 (second compound 0.0316 µM)
6.08: pIC50 (second compound 0.316 µM)
> 7.50: pIC50 (second compound 3.16 µM) | pIC50 (second compound 10 µM)
inactive: viability, T/C [1] 87.3% | viability, T/C [2] 73.3% | viability, T/C [3] 76.3% | viability, T/C [4] 47.9% | viability, T/C [5] 30.2% | viability, T/C [6] 22.1% | viability, T/C [7] 87.8% | viability, T/C [8] 73.7% | viability, T/C [9] 64% | viability, T/C [10] 47.7% | viability, T/C [11] 29.5% | viability, T/C [12] 19.2% | viability, T/C [13] 70.3% | viability, T/C [14] 67.3% | viability, T/C [15] 68.9% | viability, T/C [16] 44.5% | viability, T/C [17] 31.7% | viability, T/C [18] 21% | viability, T/C [19] 55.6% | viability, T/C [20] 50.3% | viability, T/C [21] 60.1% | viability, T/C [22] 40.2% | viability, T/C [23] 29.5% | viability, T/C [24] 19.1% | viability, T/C [25] 41.3% | viability, T/C [26] 48.1% | viability, T/C [27] 43% | viability, T/C [28] 36.5% | viability, T/C [29] 25.8% | viability, T/C [30] 17.2% | viability, T/C [31] 32.8% | viability, T/C [32] 36.1% | viability, T/C [33] 27.8% | viability, T/C [34] 21.6% | viability, T/C [35] 19.8% | viability, T/C [36] 10.1%
6.34: pIC50 (second compound 1 µM)

CNC(=O)c1ccc(N2C(=S)N(c3ccc(C#N)c(C(F)(F)F)c3)C(=O)C2(C)C)cc1F + Cc1nc(NC(=O)N2CCCC2C(N)=O)sc1-c1ccnc(C(C)(C)C(F)(F)F)c1
< 5.00: pIC50 (second compound 0.0316 µM) | pIC50 (second compound 0.1 µM) | pIC50 (second compound 0.316 µM) | pIC50 (second compound 1 µM) | pIC50 (second compound 3.16 µM)
inactive: viability, T/C [1] 99.5% | viability, T/C [2] 93.2% | viability, T/C [3] 103% | viability, T/C [4] 91% | viability, T/C [5] 94.7% | viability, T/C [6] 84.8% | viability, T/C [7] 87.3% | viability, T/C [8] 75.7% | viability, T/C [9] 80.8% | viability, T/C [10] 86.5% | viability, T/C [11] 99.1% | viability, T/C [12] 82.1% | viability, T/C [13] 68% | viability, T/C [14] 72% | viability, T/C [15] 82% | viability, T/C [16] 83.5% | viability, T/C [17] 74.1% | viability, T/C [18] 66% | viability, T/C [19] 63% | viability, T/C [20] 61.8% | viability, T/C [21] 51.7% | viability, T/C [22] 68.3% | viability, T/C [23] 60.8% | viability, T/C [24] 54.5% | viability, T/C [25] 45.1% | viability, T/C [26] 55.9% | viability, T/C [27] 49.5% | viability, T/C [28] 49.2% | viability, T/C [29] 54.3% | viability, T/C [30] 46.1% | viability, T/C [31] 27.4% | viability, T/C [32] 36.2% | viability, T/C [33] 33.9% | viability, T/C [34] 35.4% | viability, T/C [35] 40.3% | viability, T/C [36] 35.8%
> 7.50: pIC50 (second compound 10 µM)

C=CC(=O)N1CCN(c2nc(=O)n(-c3c(C)ccnc3C(C)C)c3nc(-c4c(O)cccc4F)c(F)cc23)C(C)C1 (stereo not drawn) + CC(Nc1ncnc2nc[nH]c12)c1cc2cccc(Cl)c2c(=O)n1-c1ccccc1
< 5.00: pIC50 (second compound 0.0316 µM) | pIC50 (second compound 0.1 µM) | pIC50 (second compound 0.316 µM) | pIC50 (second compound 1 µM) | pIC50 (second compound 3.16 µM) | pIC50 (second compound 10 µM)
inactive: viability, T/C [1] 94.3% | viability, T/C [2] 95.8% | viability, T/C [3] 103% | viability, T/C [4] 103% | viability, T/C [5] 105% | viability, T/C [6] 98% | viability, T/C [7] 88.5% | viability, T/C [8] 92.5% | viability, T/C [9] 96.1% | viability, T/C [10] 89.8% | viability, T/C [11] 96.3% | viability, T/C [12] 100% | viability, T/C [13] 91% | viability, T/C [14] 96.6% | viability, T/C [15] 107% | viability, T/C [16] 99.7% | viability, T/C [17] 104% | viability, T/C [18] 90.5% | viability, T/C [19] 85.7% | viability, T/C [20] 90.4% | viability, T/C [21] 118% | viability, T/C [22] 102% | viability, T/C [23] 108% | viability, T/C [24] 123% | viability, T/C [25] 74.9% | viability, T/C [26] 70.3% | viability, T/C [27] 74.7% | viability, T/C [28] 86.2% | viability, T/C [29] 93.3% | viability, T/C [30] 82.7% | viability, T/C [31] 72.5% | viability, T/C [32] 57.5% | viability, T/C [33] 69.4% | viability, T/C [34] 72.8% | viability, T/C [35] 94.9% | viability, T/C [36] 74.9%

C[C@@H](NC(=O)c1ncnc(N)c1Cl)c1ncc(C(=O)Nc2cc(C(F)(F)F)c(Cl)cn2)s1 + CC(Nc1ccc2c(c1)OCCn1cc(N3C(=O)OCC3C(F)F)nc1-2)C(N)=O
inactive: viability, T/C (second compound 0.00316 µM, first compound 0.0316 µM) 96.4% | viability, T/C (second compound 0.00316 µM, first compound 0.1 µM) 76.1% | viability, T/C (second compound 0.00316 µM, first compound 0.316 µM) 90.9% | viability, T/C (second compound 0.00316 µM, first compound 1 µM) 90.8% | viability, T/C (second compound 0.00316 µM, first compound 3.16 µM) 77.8% | viability, T/C (second compound 0.00316 µM, first compound 10 µM) 77.9% | viability, T/C (second compound 0.01 µM, first compound 0.0316 µM) 98.9% | viability, T/C (second compound 0.01 µM, first compound 0.1 µM) 91.3% | viability, T/C (second compound 0.01 µM, first compound 0.316 µM) 85.5% | viability, T/C (second compound 0.01 µM, first compound 1 µM) 100% | viability, T/C (second compound 0.01 µM, first compound 3.16 µM) 87.4% | viability, T/C (second compound 0.01 µM, first compound 10 µM) 80.2% | viability, T/C [1] 84.5% | viability, T/C [2] 80.5% | viability, T/C [3] 81.5% | viability, T/C [4] 88.4% | viability, T/C [5] 73.8% | viability, T/C [6] 64% | viability, T/C [7] 59.6% | viability, T/C [8] 66.3% | viability, T/C [9] 61.8% | viability, T/C [10] 77.5% | viability, T/C [11] 60.5% | viability, T/C [12] 58.4% | viability, T/C [13] 62.9% | viability, T/C [14] 50.2% | viability, T/C [15] 53.9% | viability, T/C [16] 60.4% | viability, T/C [17] 55.1% | viability, T/C [18] 42.2% | viability, T/C [19] 42.1% | viability, T/C [20] 44.4% | viability, T/C [21] 46.2% | viability, T/C [22] 38.2% | viability, T/C [23] 43.3% | viability, T/C [24] 32.9%
5.34: pIC50 (second compound 0.316 µM)
< 5.00: pIC50 (second compound 0.00316 µM) | pIC50 (second compound 0.01 µM) | pIC50 (second compound 0.0316 µM) | pIC50 (second compound 0.1 µM)
> 7.50: pIC50 (second compound 1 µM)
